Test results taken from patent US8129371B2, “Thienopyrimidine and pyrazolopyrimidine compounds and their use as mTOR kinase and PI3 kinase inhibitors” (Wyeth LLC, priority 2007, dated 2012).

What was measured:
Human mTOR (FLAG-TOR) = molecular target: T1, Human mTOR (FLAG-TOR) (Homo sapiens, UniProt P42345); test: Human mTOR kinase assay with purified enzyme, DELFIA format; type: biochemical
T1 construct: FLAG
Procedure, shortened: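 Purified FLAG-mTOR in HEPES pH 7.4 buffer with 10 mM MnCl2 was preincubated with inhibitor and reacted 2 h at room temperature with His6-S6K substrate, then stopped with EDTA/EGTA. Phospho-T389 S6K detected by DELFIA with Eu-labelled antibody (40 ng/mL) after plate capture; inhibition computed from signal.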

PI3K [1] = molecular target: T2, PI3K (Homo sapiens, UniProt P42336); test: Fluorescence polarization assay for PI3K; type: biochemical; conditions: PI3 Kinase α; read-out: PI3 Kinase α IC50
T2 construct: PI3 Kinase α IC50; other: PI3 Kinase α; other: PI3 Kinase α isoform, fluorescence polarization
Procedure, shortened: (§1)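 PI3K was preincubated with compound (final DMSO 1%), and the reaction was started with PIP2/ATP substrate and run 30–60 min. It was stopped with a detector mix giving 10 nM red probe and 70 nM GST-GRP.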

PI3K [2] = molecular target: T3, PI3K (Homo sapiens, UniProt P48736); test: Fluorescence polarization assay for PI3K; type: biochemical; conditions: PI3 Kinase γ; read-out: PI3 Kinase γ IC50
T3 construct: PI3 Kinase γ IC50; other: PI3 Kinase γ; other: PI3 Kinase γ isoform, fluorescence polarization
Procedure, shortened: as §1

prostate line LNCap = test: In vitro cell culture growth assay (MTS), LNCap; type: cell-based; conditions: Homo sapiens, LNCaP, 72 h, LNCap cells, three days after drug treatment
Procedure, shortened: (§2)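 Following a one-day attachment period, cells received inhibitors for 3 days. MTS metabolism by viable cells was quantified at 490 nm absorbance and converted to percent of same-plate vehicle control growth.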

breast line MDA468 = test: In vitro cell culture growth assay (MTS), MDA468; type: cell-based; conditions: Homo sapiens, 72 h, MDA468 cells, three days after drug treatment
Procedure, shortened: as §2

T2 sequence (P42336 whole entry, canonical isoform): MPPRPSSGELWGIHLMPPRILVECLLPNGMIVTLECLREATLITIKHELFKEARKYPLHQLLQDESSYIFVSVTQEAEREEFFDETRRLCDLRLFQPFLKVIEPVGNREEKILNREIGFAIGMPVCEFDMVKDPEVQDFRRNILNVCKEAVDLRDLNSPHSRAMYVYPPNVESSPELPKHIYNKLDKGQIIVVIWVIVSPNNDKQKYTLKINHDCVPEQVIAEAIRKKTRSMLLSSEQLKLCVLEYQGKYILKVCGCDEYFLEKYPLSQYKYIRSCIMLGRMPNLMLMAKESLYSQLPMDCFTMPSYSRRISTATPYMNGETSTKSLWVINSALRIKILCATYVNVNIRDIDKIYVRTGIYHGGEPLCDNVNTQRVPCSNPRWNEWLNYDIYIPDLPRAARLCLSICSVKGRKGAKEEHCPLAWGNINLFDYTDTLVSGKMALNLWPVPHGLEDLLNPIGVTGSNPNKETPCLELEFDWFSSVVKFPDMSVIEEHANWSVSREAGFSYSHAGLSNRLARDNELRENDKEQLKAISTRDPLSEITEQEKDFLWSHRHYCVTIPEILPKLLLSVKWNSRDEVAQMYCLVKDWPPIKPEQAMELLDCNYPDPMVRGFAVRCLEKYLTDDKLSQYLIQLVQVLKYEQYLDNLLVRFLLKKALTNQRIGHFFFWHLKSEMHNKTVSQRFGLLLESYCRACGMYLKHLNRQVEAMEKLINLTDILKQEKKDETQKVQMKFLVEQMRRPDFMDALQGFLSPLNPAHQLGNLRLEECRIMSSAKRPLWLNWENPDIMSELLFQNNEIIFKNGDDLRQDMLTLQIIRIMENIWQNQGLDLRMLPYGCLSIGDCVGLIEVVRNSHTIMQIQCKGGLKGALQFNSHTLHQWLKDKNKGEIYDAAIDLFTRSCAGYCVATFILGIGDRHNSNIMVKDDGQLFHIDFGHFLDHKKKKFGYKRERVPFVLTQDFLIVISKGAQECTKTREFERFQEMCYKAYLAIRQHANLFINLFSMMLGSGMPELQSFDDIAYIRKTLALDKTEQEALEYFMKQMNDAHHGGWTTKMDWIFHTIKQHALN
T3 sequence (P48736 whole entry, canonical isoform): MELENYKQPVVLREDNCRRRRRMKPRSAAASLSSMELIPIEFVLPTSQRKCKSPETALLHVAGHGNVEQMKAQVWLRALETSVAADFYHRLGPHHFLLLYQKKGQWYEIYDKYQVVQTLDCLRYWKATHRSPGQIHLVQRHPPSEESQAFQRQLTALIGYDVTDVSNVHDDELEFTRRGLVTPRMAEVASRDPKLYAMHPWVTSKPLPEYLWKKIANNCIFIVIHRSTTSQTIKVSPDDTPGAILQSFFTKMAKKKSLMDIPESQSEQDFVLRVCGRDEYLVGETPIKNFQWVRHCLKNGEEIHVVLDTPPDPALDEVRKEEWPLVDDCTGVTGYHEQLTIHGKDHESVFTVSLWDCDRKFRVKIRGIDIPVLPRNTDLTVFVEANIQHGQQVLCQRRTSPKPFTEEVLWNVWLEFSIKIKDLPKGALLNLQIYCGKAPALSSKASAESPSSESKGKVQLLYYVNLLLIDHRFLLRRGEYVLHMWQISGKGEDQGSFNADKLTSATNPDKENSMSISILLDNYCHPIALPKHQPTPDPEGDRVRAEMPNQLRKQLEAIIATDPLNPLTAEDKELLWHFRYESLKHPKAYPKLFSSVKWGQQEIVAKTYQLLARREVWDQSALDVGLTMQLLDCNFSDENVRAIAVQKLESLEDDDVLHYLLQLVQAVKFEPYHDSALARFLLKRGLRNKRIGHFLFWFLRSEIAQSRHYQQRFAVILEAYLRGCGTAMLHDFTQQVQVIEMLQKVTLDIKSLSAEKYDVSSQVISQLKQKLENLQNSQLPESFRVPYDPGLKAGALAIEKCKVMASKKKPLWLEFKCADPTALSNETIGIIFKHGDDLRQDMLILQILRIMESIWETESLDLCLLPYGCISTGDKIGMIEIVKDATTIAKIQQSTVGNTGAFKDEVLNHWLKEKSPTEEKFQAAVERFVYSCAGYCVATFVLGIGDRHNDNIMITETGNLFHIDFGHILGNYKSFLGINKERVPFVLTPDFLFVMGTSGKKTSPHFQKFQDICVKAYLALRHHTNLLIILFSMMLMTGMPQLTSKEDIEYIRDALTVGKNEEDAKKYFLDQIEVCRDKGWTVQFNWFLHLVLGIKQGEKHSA

Structure (SMILES)	IC50 (Human mTOR (FLAG-TOR)) [nM]	IC50 (PI3K [1]) [nM]	IC50 (PI3K [2]) [nM]	IC50 (prostate line LNCap) [nM]	IC50 (breast line MDA468) [nM]
CCOC(=O)N1CCC(n2ncc3c(N4CC5CCC(C4)O5)nc(-c4ccc(NC(=O)NC5CCN(C)CC5)cc4)nc32)CC1 [Example 36, ethyl 4-[6-(4-{[(1-methylpiperidin-4-yl)carbamoyl]amino}phenyl)-4-(8-oxa-3-azabicyclo[3.2.1]oct-3-yl)-1H-pyrazolo[3,4-d]pyrimidin-1-yl]piperidine-1-carboxylate]	26	6210	7620	1200	4500
CCOC(=O)N1CCC(n2ncc3c(N4CC5CCC(C4)O5)nc(-c4ccc(NC(=O)NC5CCN(C(=O)OC(C)(C)C)CC5)cc4)nc32)CC1 [Example 37, ethyl 4-{6-[4-({[1-(tert-butoxycarbonyl)piperidin-4-yl]carbamoyl}amino)phenyl]-4-(8-oxa-3-azabicyclo[3.2.1]oct-3-yl)-1H-pyrazolo[3,4-d]pyrimidin-1-yl}piperidine-1-carboxylate]	37	8620	7390	1000	> 60000
CCOC(=O)N1CCC(n2ncc3c(N4CC5CCC(C4)O5)nc(-c4ccc(NC(=O)NCCCNC)cc4)nc32)CC1 [Example 38, ethyl 4-{6-[4-({[3-(methylamino)propyl]carbamoyl}amino)phenyl]-4-(8-oxa-3-azabicyclo[3.2.1]oct-3-yl)-1H-pyrazolo[3,4-d]pyrimidin-1-yl}piperidine-1-carboxylate]	5.3	1760	11000	4400	7000
CCOC(=O)N1CCC(n2ncc3c(N4CC5CCC(C4)O5)nc(-c4ccc(NC(=O)Nc5ccn[nH]5)cc4)nc32)CC1 [Example 39, ethyl 4-[4-(8-oxa-3-azabicyclo[3.2.1]oct-3-yl)-6-{4-[(1H-pyrazol-5-ylcarbamoyl)amino]phenyl}-1H-pyrazolo[3,4-d]pyrimidin-1-yl]piperidine-1-carboxylate]	96	5700	8880	2600	8000
CCn1ncc2c(N3CC4CCC(C3)O4)nc(-c3ccc(NC(=O)NC)cc3)nc21 [Example 40, 1-{4-[1-ethyl-4-(8-oxa-3-azabicyclo[3.2.1]oct-3-yl)-1H-pyrazolo[3,4-d]pyrimidin-6-yl]phenyl}-3-methylurea]	0.58	270	> 10000	70	300
CCNC(=O)Nc1ccc(-c2nc(N3CC4CCC(C3)O4)c3cnn(CC)c3n2)cc1 [Example 41, 1-ethyl-3-{4-[1-ethyl-4-(8-oxa-3-azabicyclo[3.2.1]oct-3-yl)-1H-pyrazolo[3,4-d]pyrimidin-6-yl]phenyl}urea]	0.47	1250	12000	16	80
CCn1ncc2c(N3CC4CCC(C3)O4)nc(-c3ccc(NC(=O)NC4CC4)cc3)nc21 [Example 43, 1-cyclopropyl-3-{4-[1-ethyl-4-(8-oxa-3-azabicyclo[3.2.1]oct-3-yl)-1H-pyrazolo[3,4-d]pyrimidin-6-yl]phenyl}urea]	0.4	1760	> 10000	52	250
CCn1ncc2c(N3CC4CCC(C3)O4)nc(-c3ccc(NC(=O)OCCO)cc3)nc21 [Example 45, 2-hydroxyethyl {4-[1-ethyl-4-(8-oxa-3-azabicyclo[3.2.1]oct-3-yl)-1H-pyrazolo[3,4-d]pyrimidin-6-yl]phenyl}carbamate]	1.2	1610	> 10000	100	270
CCn1ncc2c(N3CC4CCC(C3)O4)nc(-c3ccc(NC(=O)NCCCNC)cc3)nc21 [Example 49, 1-{4-[1-ethyl-4-(8-oxa-3-azabicyclo[3.2.1]oct-3-yl)-1H-pyrazolo[3,4-d]pyrimidin-6-yl]phenyl}-3-[3-(methylamino)propyl]urea]	14	968	> 10000	1800	3000
CNC(=O)Nc1ccc(-c2nc(N3CC4CCC(C3)O4)c3cnn(C)c3n2)cc1 [Example 50, 1-methyl-3-{4-[1-methyl-4-(8-oxa-3-azabicyclo[3.2.1]oct-3-yl)-1H-pyrazolo[3,4-d]pyrimidin-6-yl]phenyl}urea]	2	247	6290	170	700

Now those with a lower IC50 (Human mTOR (FLAG-TOR)), led by results:

IC50 (Human mTOR (FLAG-TOR)) [nM]	IC50 (PI3K [1]) [nM]	IC50 (PI3K [2]) [nM]	IC50 (prostate line LNCap) [nM]	Structure (SMILES)	IC50 (breast line MDA468) [nM]
0.34	291	1800	< 0.8	CCOC(=O)N1CCC(n2ncc3c(N4CC5CCC(C4)O5)nc(-c4ccc(NC(=O)Nc5ccncc5)cc4)nc32)CC1 [Example 35, ethyl 4-[4-(8-oxa-3-azabicyclo[3.2.1]oct-3-yl)-6-{4-[(pyridin-4-ylcarbamoyl)amino]phenyl}-1H-pyrazolo[3,4-d]pyrimidin-1-yl]piperidine-1-carboxylate]	9
0.34	416	12000	220	CCn1ncc2c(N3CC4CCC(C3)O4)nc(-c3ccc(NC(=O)NCCO)cc3)nc21 [Example 44, 1-{4-[1-ethyl-4-(8-oxa-3-azabicyclo[3.2.1]oct-3-yl)-1H-pyrazolo[3,4-d]pyrimidin-6-yl]phenyl}-3-(2-hydroxyethyl)urea]	370
0.31	973	> 10000	31	CCn1ncc2c(N3CC4CCC(C3)O4)nc(-c3ccc(NC(=O)NCCF)cc3)nc21 [Example 42, 1-{4-[1-ethyl-4-(8-oxa-3-azabicyclo[3.2.1]oct-3-yl)-1H-pyrazolo[3,4-d]pyrimidin-6-yl]phenyl}-3-(2-fluoroethyl)urea]	120
0.3	68	1610	0.8	CCn1ncc2c(N3CC4CCC(C3)O4)nc(-c3ccc(NC(=O)Nc4ccccc4)cc3)nc21 [Example 46, 1-{4-[1-ethyl-4-(8-oxa-3-azabicyclo[3.2.1]oct-3-yl)-1H-pyrazolo[3,4-d]pyrimidin-6-yl]phenyl}-3-phenylurea]	12
0.16	134	1120	< 0.8	CCn1ncc2c(N3CC4CCC(C3)O4)nc(-c3ccc(NC(=O)Nc4ccncc4)cc3)nc21 [Example 48, 1-{4-[1-ethyl-4-(8-oxa-3-azabicyclo[3.2.1]oct-3-yl)-1H-pyrazolo[3,4-d]pyrimidin-6-yl]phenyl}-3-pyridin-4-ylurea]	< 0.8
0.12	314	2610	< 0.8	CCOC(=O)N1CCC(n2ncc3c(N4CC5CCC(C4)O5)nc(-c4ccc(NC(=O)Nc5cccnc5)cc4)nc32)CC1 [Example 34, ethyl 4-[4-(8-oxa-3-azabicyclo[3.2.1]oct-3-yl)-6-{4-[(pyridin-3-ylcarbamoyl)amino]phenyl}-1H-pyrazolo[3,4-d]pyrimidin-1-yl]piperidine-1-carboxylate]	25
0.11	160	2720	< 0.8	CCn1ncc2c(N3CC4CCC(C3)O4)nc(-c3ccc(NC(=O)Nc4cccnc4)cc3)nc21 [Example 47, 1-{4-[1-ethyl-4-(8-oxa-3-azabicyclo[3.2.1]oct-3-yl)-1H-pyrazolo[3,4-d]pyrimidin-6-yl]phenyl}-3-pyridin-3-ylurea]	1.2
